Four compounds from patent US8158656B2, “2-indolinone derivatives as multi-target protein kinase inhibitors and histone deacetylase inhibitors” (Shenzhen Chipscreen Biosciences Ltd., priority 2008, dated 2012) can be followed below.

Assay [1] deals with HUVEC cells. Kind of assay: VEGF ligand-dependent cell proliferation. The conditions noted are these: Homo sapiens, VEGF 165 50 ng/ml, 72 hours, MTS. The class given is cell-based. The procedure:
VEGF dependent cell proliferation:
HUVEC cells were plated into 96-well plates at 6,000 per well and incubated with serum-free medium for 2 hours. Compounds and VEGF 165 (50 ng/ml) were added and incubated for 72 hours in serum-free medium. The effects on proliferation were determined by addition of MTS reagent (Promega) according to the instruction, incubation for 2 hours at 37° C. in CO2 incubator, and record the absorbance at 490 nm using an ELISA plate reader.

The test system of assay [2] is total HDAC enzyme. Kind of assay: Total HDAC enzyme activity, HDAC Fluorimetric Assay (HeLa extract). The class given is biochemical, human. The protocol:
Measurement of in vitro inhibition of total HDAC enzyme activity:
The in vitro inhibition of total HDAC enzyme was determined by HDAC Fluorimetric Assay/Drug Discovery Kit (BIOMOL) according to manufacture's instruction. • 1. Add Assay buffer, diluted trichostatin A or test inhibitor to appropriate wells of the microtiter plate. Following table lists examples of various assay types and the additions required for each test.
• 2. Add diluted HeLa extract or other HDAC sample to all wells except those that are to be “No Enzyme Controls” (Blank). • 3. Allow diluted Fluor de Lys™ Substrate and the samples in the microtiter plate to equilibrate to assay temperature (25° C.). • 4. Initiate HDAC reactions by adding diluted substrate (25 μl) to each well and mixing thoroughly. • 5. Allow HDAC reactions to proceed for desired length of time and then stop them by addition of Fluor de Lys™ Developer (50 μl). Incubate plate at room temperature (25° C.) for 10-15 min. • 6. Read samples in a microtiter-plate reading fluorimeter capable of excitation at a wavelength in the range 350-380 nm and detection of emitted light in the range 440-460 nm. Measurement of in vivo inhibition of HDAC subtype activity: […]

Assay [3] has as its system Class I HDAC. Put plainly: P21 reporter assay in HeLa cells. The class given is cell-based, human. The conditions noted are these: relative to CS055 at 3 μM. The procedure:
HDAC subtype selectivity inhibition assay of tested compounds was carried out by several reporter gene assays experiments. Briefly, HeLa cells were seeded in 96-well plates the day before transfection to give a confluence of 50-80%. Cells were transfected with one of reporter gene plasmid containing a promoter sequence or response element upstream of a luciferase gene construct using FuGene6 transfection reagent according to the manufacturer's instruction (Roche). The promoters or response elements including p21-promoter, gdf11-promoter, MEF-binding element (MEF2), Nur77-promoter were fused upstream to the luciferase gene reporter construct. For normalizing the transfection efficiency, a GFP expression plasmid was cotransfected. Cells were allowed to express protein for 24 hours followed by addition of individual compounds or the vehicle (DMSO). 24 hours later the cells were harvested, and the luciferase assay and GFP assay were performed using corresponding assay kits according to the manufacturer's instructions (Promega).
Background: A reporter such as luciferase makes a cellular process visible.

Assay [4] relates to HL60. Kind of assay: Tumor cell proliferation (MTS), HL60. Type of assay: cell-based. The conditions noted are these: Homo sapiens, HL-60, HL60, 72 hours. The protocol: (§1) Measurement of in vivo cell proliferation:
(§2) Tumor cells were trypsinized and plated into 96-well plates at 3,000 per well and incubated in complete medium with 10% FBS for 24 hours. Compounds were added over a final concentration range of 100 μmol/L to 100 nmol/L in 0.1% DMSO and incubated for 72 hours in complete medium. The effects on proliferation were determined by addition of MTS reagent (Promega) according to the instruction, incubation for 2 hours at 37° C. in CO2 incubator, and record the absorbance at 490 nm using an ELISA plate reader.

Assay [5] deals with Hut-78. Kind of assay: Tumor cell proliferation (MTS), Hut-78. The class given is cell-based. The conditions noted are these: Homo sapiens, HuT78, Hut-78, 72 hours. The protocol:
as §1, §2

The test system of assay [6] is Raji. Put plainly: Tumor cell proliferation (MTS), Raji. The class given is cell-based. The following applies: Homo sapiens, 72 hours. The protocol:
as §1, §2

Assay [7] concerns Jurkat. Kind of assay: Tumor cell proliferation (MTS), Jurkat. The class given is cell-based. The following applies: Homo sapiens, 72 hours. The protocol:
as §1, §2

The test system of assay [8] is U937. Put plainly: Tumor cell proliferation (MTS), U937. Type of assay: cell-based. The conditions noted are these: Homo sapiens, U-937, U937, 72 hours. The procedure:
as §1, §2

Assay [9] relates to Ramos. Kind of assay: Tumor cell proliferation (MTS), Ramos. Type of assay: cell-based. The following applies: Homo sapiens, 72 hours. The procedure: as §1, §2
Assay [10] relates to A549. Kind of assay: Tumor cell proliferation (MTS), A549. The class given is cell-based. The following applies: Homo sapiens, A549, 72 hours. The procedure:
as §1, §2

Assay [11] deals with MCF7. Kind of assay: Tumor cell proliferation (MTS), MCF7. The conditions noted are these: Homo sapiens, MCF7, 72 hours. The class given is cell-based. The procedure:
as §1, §2

Assay [12] relates to HCT-8. Put plainly: Tumor cell proliferation (MTS), HCT-8. The following applies: Homo sapiens, HCT-8, 72 hours. The class given is cell-based. The protocol:
as §1, §2

For `Cc1[nH]c(/C=C2\C(=O)Nc3ccc(F)cc32)c(C)c1C(=O)NCCCNc1ccc(C(=O)Nc2ccc(F)cc2N)cn1` [Example 16, (Z)-N-(2-amino-4-fluorophenyl)-6-(3-(2-((5-fluoro-2-oxoindolin-3-ylidene)-methyl)-3,5-dimethyl-1H-pyrrole-4-carboxamido)propylamino)nicotinamide], the GI50 (in general, the concentration that inhibits growth by half) in assay [1] was 39 nM; in [4] it was above 60 µM; in [5], above 60 µM; in assay [6], above 60 µM; in assay [7], above 60 µM; in assay [8], above 60 µM. The GI50 in assay [9], in [10], in assay [11] and in assay [12] was above 60 µM each time. In addition, the “% inhibition of total HDAC enzyme activity at 30 μM” value (from here on “% inhibition”) in [2] is given as 6.70%. Moreover, in assay [3], the “Class I HDAC (P21 reporter assay) % Max Resp of CS055 at 3 μM” value came to 2.5%.
On to `Cc1[nH]c(/C=N/N=C2\C(=O)Nc3ccc(F)cc32)c(C)c1C(=O)NCCCNc1ccc(C(=O)Nc2ccc(F)cc2N)cn1` [Example 17, N-(2-amino-4-fluorophenyl)-6-(3-(2-(((5-fluoro-2-oxoindolin-3-ylidene)-hydrazono)methyl)-3,5-dimethyl-1H-pyrrole-4-carboxamido)propylamino)nicotinamide], for which the GI50 was 460 nM in assay [1]; above 60 µM in [4]; above 60 µM in assay [5]; above 60 µM in assay [6]; above 60 µM in [7]; above 60 µM in [8]. The GI50 in assay [9], in [10], in [11] and in [12] was above 60 µM throughout. The “% inhibition” value in assay [2] was determined as 4.00%. Moreover, the “Class I HDAC (P21 reporter assay) % Max Resp of CS055 at 3 μM” value in [3] came out at 3.4%.
Take `Cc1[nH]c(/C=C2\C(=O)Nc3ccc(F)cc32)c(C)c1C(=O)NCCCCNc1ccc(C(=O)Nc2ccc(F)cc2N)cn1` [Example 19, (Z)-N-(2-amino-4-fluorophenyl)-6-(4-(2-((5-fluoro-2-oxoindolin-3-ylidene)-methyl)-3,5-dimethyl-1H-pyrrole-4-carboxamido)butylamino)nicotinamide]: the GI50 in assay [1] was 81 nM; in assay [4], above 60 µM; in assay [5], above 60 µM; in [6], above 60 µM; in assay [7], above 60 µM; in [8], above 60 µM. Further, the 50% growth inhibitory concentration (GI50) in assay [9], in assay [10], in [11] and in assay [12] was above 60 µM in each case. For the same compound, the “% inhibition” value in assay [2] came to 7.30%. In addition, the “Class I HDAC (P21 reporter assay) % Max Resp of CS055 at 3 μM” value in assay [3] was determined as 2.3%.
Turning to `Cc1[nH]c(/C=N/N=C2\C(=O)Nc3ccc(F)cc32)c(C)c1C(=O)NCCCCNc1ccc(C(=O)Nc2ccc(F)cc2N)cn1` [Example 20, N-(2-amino-4-fluorophenyl)-6-(4-(2-(((5-fluoro-2-oxoindolin-3-ylidene)-hydrazono)methyl)-3,5-dimethyl-1H-pyrrole-4-carboxamido)butylamino)nicotinamide], the GI50 in assay [1] is 330 nM; in assay [4] it was above 60 µM; in assay [5], above 60 µM; in assay [6], above 60 µM; in assay [7], above 60 µM; in assay [8], above 60 µM. For the same compound, the GI50 in assay [9], in assay [10], in [11] and in assay [12] was above 60 µM in each case. In addition, the “% inhibition” value in assay [2] amounted to 3.50%. The “Class I HDAC (P21 reporter assay) % Max Resp of CS055 at 3 μM” value in assay [3] is 2.8%.
